Assay results published in patent US20070197562A1, “Remedies for prostatic hypertrophy” (Yokohama TLO Company, Ltd., priority 2004, published 2007).

How the values were obtained:
PrSC cells = test: Proliferation of PrSC cells stimulated with angiotensin II, TGFβ or EGF (cell count, Examples 1-3); assay type: cell-based, human; details: 5 days
Description: A Cell Line Derived from Normal Human Prostatic stromal cells, i.e., PrSC cells, was purchased from Sanko Junyaku Co. Ltd. (Normal Human Prostate Stromal Cells, catalogue number CC-2508), and maintained by subculturing them in a phenol red-free RPMI medium under conditions of 5% CO2 and 37° C.
The PrSC cells (10^4 cells) were placed in a 12-well dish, and cultured in a phenol red-free medium containing 0.1% (W/V) BSA under conditions of 5% CO2 and 37° C. for several days. Then, 1 μM or 10 μM of angiotensin II was added. To some wells, CV (10 μM; hereinafter CV was used at this concentration unless otherwise noted) was added as an AIIR blocker 4 hours before adding angiotensin II. Each group contained four wells (n=4). After culturing the cells at 5% CO2 and 37° C. for 5 days, the number of all cells in each of the wells was counted.
The effect of an AIIR blocker was examined in the same manner as Example 1, except for that 10 ng/mL of TGFβ was used in place of angiotensin II.
The effect of an AIIR blocker was examined in the same manner as Example 1, except for that 10 ng/mL of EGF was used in place of angiotensin II.

F-1 cells = test: IL-6 secretion by primary-cultured F-1 cells (CLEIA); assay type: cell-based, human; details: AII (10 μM)+CV 10 μM; 24 hours; P<0.03 vs AII (10 μM)
Description: The primary-cultured stromal cells (F-1 cells) derived from a patient with prostatic hypertrophy were prepared as described below.
Tissues obtained from the patient were placed in a 50 mL centrifuge tube containing 20 mL of a medium (RPMI 1640, GIBCO 11835-030) supplemented with 10% (V/V) FBS (filtron) and mg/mL penicillin/streptomycin (GIBCO 15140-122), and allowed to stand at 4° C. for 1 hour or longer. Subsequently, the tissues were placed in a 10-cm dish, and cut into pieces of about 1 mm square. Blood vessels and the like were removed. At that time, to remove excessive blood (if necessary), the tissues were washed by adding 20 mL of the medium and centrifuging the mixture for 5 minutes at 1,000 rpm, followed by aspiration of the supernatant. […]
PrSC cells prepared in the same manner as Example 1, or F-1 or FT-FB cells prepared as described above were placed in a 6-well dish at 10^5 cells per well, cultured at 5% CO2 and 37° C. for 1 day (24 hours), and stimulated by the addition of TGFβ (1 ng/mL), TNFα (1 ng/mL), EGF (2.5 or 10 ng/mL), or angiotensin II (1 μM or 10 μM) (n=3). […] The culture media were collected 24 hours after adding the reagents, and the concentrations of IL-6 were determined by the CLEIA method.

CCOc1nc2cccc(C(=O)OC(C)OC(=O)OC3CCCCC3)c2n1Cc1ccc(-c2ccccc2-c2nnn[nH]2)cc1 (centres unmarked) [CV, 1-(cyclohexyloxycarbonyloxy)ethyl 2-ethoxy-1-[[2′-(1H-tetrazole-5-yl)biphenyl-4-yl]methyl]-1H-benzimidazole-7-carboxylate]
increase in the numbers of cells (PrSC cells; AII (1 μM)+CV 10 μM added 4 hours before, P<0.01 vs AII (1 μM)): suppressed to a level similar to that of the control group
increase in the numbers of cells (PrSC cells; AII (10 μM)+CV 10 μM added 4 hours before, P<0.01 vs AII (10 μM)): suppressed to a level similar to that of the control group
increase in the number of cells (PrSC cells; EGF 10 ng/mL + CV 10 μM, P<0.05): significantly suppressed (P<0.05) to the same level as that of the control group
increase in the number of cells (PrSC cells; TGFβ 10 ng/mL + CV 10 μM, P<0.05 vs TGFβ): significantly suppressed
IL-6 secretion (F-1 cells): significantly suppressed
